Assay results published in EP1745781A1, “Combination of pyrazoline type cannabinoid receptor antagonist and statin” (LABORATORIOS DEL DR. ESTEVE, S.A., priority 2005, dated 2007).
pKi: −log10 of the molar value.

Key:
Male NMRI mice [1] = experiment: Mouse tetrad model: hypothermia; format: in vivo; conditions: for Agonistic effect B: Hypothermia: 5 mg/kg i.v.; for Antagonistic Effect B: Hypothermia: 5 mg/kg i.v. prior to Win 55212-2 in a dose of 1.25mg/kg i.v.
From the text: (§1) II. In-vivo bioassay system for determination of cannabinoid activity
(§2) Substances with affinity for cannabinoid receptors are known to produce a wide range of pharmacological effects. It is also known that intravenous administration of a substance with affinity for cannabinoid receptors in mice produces analgesia , hypothermia, sedation and catalepsy. Individually, none of these effects can be considered as proof that a tested substance has affinity for cannabinoid-receptors, since all of these effects are common for various classes of centrally active agents. However, substances, which show all of these effects, i.e. substances that are active in this so-called tetrad model are considered to have affinity for the cannabinoid receptors. It has further been shown that cannabinoid receptor antagonists are higly effective in blocking the effects of a cannabinoid agonist in the mouse tetrad model.
(§3) The tetrad model is described, for example, in the publication of A. C. Howlett et al, international Union of Pharmacology XXVII. Classification of Cannabinoid Receptors, Pharmacol Rev 54, 161-202 , 2002 and David R. Compton et al., "In-vivo Characterization of a Specific Cannabinoid Receptor Antagonist (SR141716A) :Inhibition of Tetrahydrocannbinol- induced Responses and Apparent Agonist Activity", J. Pharmacol. Exp. Ther. 277 , 2, 586-594, 1996. […]
(§4) Before testing in the behavioral procedures given below, mice are acclimatized to the experimental setting. Pre-Treatment control values are determined for analgesia hot plate latency (in seconds), rectal temperature, sedation and catalepsy.
(§5) In order to determine the agonistic activty of the substance to be tested, the mice are injected intravenously with the substance to be tested or the vehicle alone. 15 minutes after injection, latency in hot plate analgesia is measured. Rectal temperature, sedation and catalepsy are measured 20 minutes after injection.
(§6) In order to determine the antagonistic activity the identical procedure is used as for the determination of the agonistic effects, but with the difference that the substance to be evaluated for its antagonistic activity is injectected 5 minutes before the intravenous injection of 1.25 mg/kg Win-55,212 a known cannabinoid-receptor agonist.
Hypothermia is determined according to the method described in David R. Compton et al. "In-vivo Characterization of a Specific Cannabinoid Receptor Antagonist (SR141716A) Inhibition of Tetrahydrocannbinol- induced Responses and Apparent Agonist Activity", J. Pharmacol Exp Ther. 277 , 2, 586-594, 1996. […]
The base-line rectal temperatures are determined with a thermometer (Yello Springs Instruments Co., Panlabs) and a thermistor probe inserted to 25mm before the administration of the substance to be tested. […]

Male NMRI mice [2] = experiment: Mouse tetrad model: hot plate analgesia; format: in vivo; conditions: for Agonistic effect A: Hot-Plate test: 5 mg/kg i.v.; for Antagonistic Effect A: Hot-Plate test: 5 mg/kg i.v. prior to Win 55212-2 in a dose of 1.25mg/kg i.v.
From the text: as §1, §2
as §3, with “1996. The corresponding parts of the description are hereby incorporated by reference.” for “1996.”
as §4, §5, §6
The hot plate analgesia is determined according to the method described in Woolfe D. et al. "The evaluation of analgesic action of pethidine hydrochloride (Demerol)", J. Pharmacol. Exp. Ther. 80, 300-307,1944. […]
The mice are placed on a hot plate (Harvard Analgesimeter) at 55 ± 0.5 °C until they show a painful sensation by licking their paws or jumping and the time for these sensations to occur is recorded. This reading is considered the basal value (B). […]

Male NMRI mice [3] = experiment: Mouse tetrad model: sedation and ataxia; format: in vivo; conditions: for Agonistic effect D: Sedation: 5 mg/kg i.v.; for Antagonistic Effect D: Sedation: 5 mg/kg i.v. prior to Win 55212-2 in a dose of 1.25mg/kg i.v.
From the text: as §1, §2
The tetrad model is described, for example, in the publication of A. C. Howlett et al, international Union of Pharmacology XXVII. Classification of Cannabinoid Receptors, Pharmacol Rev 54, 161-202 , 2002 and David R. Compton et al., "In-vivo Characterization of a Specific Cannabinoid Receptor Antagonist (SR141716A) :Inhibition of Tetrahydrocannbinol- induced Responses and Apparent Agonist Activity", J. Pharmacol. Exp. Ther. 277 , 2, 586-594, 1996. The corresponding parts of the description are hereby incorporated by reference.
Male NMRI mice with a weight of 20-30 g (Harlan, Barcelona, Spain) are used in all of the following experiments.
as §4, §5, §6
Determination of sedation and ataxia
Sedation and ataxia is determined according to the method described in Desmet L. K. C. et al. "Anticonvulsive properties of Cinarizine and Flunarizine in Rats and Mice", Arzneim. -Forsch. (Frug Res) 25, 9, 1975. […]
The percentage of sedation is determined according to the formula: %of sedation = arithmetic mean/3 × 100 [formula]

CB2-Receptor = biological target: T1, CB2-Receptor (Homo sapiens, UniProt P34972); experiment: In-vitro determination of affinity to CB2 receptor (radioligand [^3H]-CP55940); format: binding
T1 construct: purchased Receptor Biology, Inc
Procedure: (§7) I. In-vitro determination of affinity to CB1/CB2-Receptors
(§8) The in-vitro determination of the affinity of the substituted pyrazoline compounds to CB1/CB2-Rezeptors is carried out as described in the publication of Ruth A. Ross, Heather C. Brockie et al., "Agonist-inverse agonist characterization at CB1 and CB2 cannabinoid receptors of L-759633. L759656 and AM630", British Journal of Pharmacology, 126, 665-672, (1999), whereby the transfected human CB1 and CB2 receptors of Receptor Biology, Inc. are used. The radioligand used for both receptors is [^3H]-CP55940. The respective parts of the description is hereby incorporated by reference and forms part of the present disclosure.

CB1-Receptor = biological target: T2, CB1-Receptor (Homo sapiens, UniProt P21554); experiment: In-vitro determination of affinity to CB1 receptor (radioligand [^3H]-CP55940); format: binding
T2 construct: purchased Receptor Biology, Inc
Procedure: as §7, §8

Male NMRI mice [4] = experiment: Mouse tetrad model: catalepsy; format: in vivo; conditions: for Agonistic effect C: Catalepsy: 5 mg/kg i.v.; for Antagonistic Effect C: Catalepsy: 5 mg/kg i.v. prior to Win 55212-2 in a dose of 1.25mg/kg i.v.
From the text: as §1, §2, §3, §4, §5, §6
Catalepsy is determined according to the method described in Alpermann H. G. et al. "Pharmacological effets of Hoe 249: A new potential antidepressant", Drugs Dev. […]
The cataleptic effect of the substance to be tested is evaluated according to the duration of catalepsy, whereby the animals are placed head downwards with their kinlegs upon the top of the wooden block. […]
The percentage of catalepsy is determined according ot the following formula: %Catalepsy = arithmetic mean/6 × 100 [formula]

T1 sequence (P34972 whole entry): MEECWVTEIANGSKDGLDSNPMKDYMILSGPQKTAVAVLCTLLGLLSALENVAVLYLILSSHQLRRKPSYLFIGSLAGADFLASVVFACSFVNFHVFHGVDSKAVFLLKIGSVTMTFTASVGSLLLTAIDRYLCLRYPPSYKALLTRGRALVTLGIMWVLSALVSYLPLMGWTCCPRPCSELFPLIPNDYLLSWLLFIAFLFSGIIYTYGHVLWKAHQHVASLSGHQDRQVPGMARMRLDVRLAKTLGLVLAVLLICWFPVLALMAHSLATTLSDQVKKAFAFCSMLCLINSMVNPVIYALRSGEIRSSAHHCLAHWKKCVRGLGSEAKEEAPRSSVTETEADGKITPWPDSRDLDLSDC
T2 sequence (P21554 whole entry): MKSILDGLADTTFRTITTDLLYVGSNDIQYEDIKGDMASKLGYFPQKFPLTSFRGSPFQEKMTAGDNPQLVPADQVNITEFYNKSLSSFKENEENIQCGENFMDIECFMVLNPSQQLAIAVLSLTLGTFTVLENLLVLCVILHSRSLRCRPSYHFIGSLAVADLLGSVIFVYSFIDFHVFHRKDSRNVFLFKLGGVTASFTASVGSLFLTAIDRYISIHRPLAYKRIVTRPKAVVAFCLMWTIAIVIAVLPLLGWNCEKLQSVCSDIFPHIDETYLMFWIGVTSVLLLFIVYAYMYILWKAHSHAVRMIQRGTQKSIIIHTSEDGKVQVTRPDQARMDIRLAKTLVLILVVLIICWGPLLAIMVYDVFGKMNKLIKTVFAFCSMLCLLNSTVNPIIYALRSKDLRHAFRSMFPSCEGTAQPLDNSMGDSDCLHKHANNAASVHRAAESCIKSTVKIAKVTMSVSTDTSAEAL

Row | Compound | Agonistic effect B: Hypothermia (Male NMRI mice [1]) | Antagonistic Effect B: Hypothermia (Male NMRI mice [1]) | Agonistic effect A: Hot-Plate test (Male NMRI mice [2]) | Antagonistic Effect A: Hot-Plate test (Male NMRI mice [2]) | Agonistic effect D: Sedation (Male NMRI mice [3]) | Antagonistic Effect D: Sedation (Male NMRI mice [3]) | pKi (CB2-Receptor) | pKi (CB1-Receptor) | Agonistic effect C: Catalepsy (Male NMRI mice [4]) | Antagonistic Effect C: Catalepsy (Male NMRI mice [4])
1 | O=C(NN1CCCCC1)C1=NN(c2ccc(Cl)cc2Cl)C(c2ccc(Cl)cc2)C1 (stereo not shown) [Example 1, N-piperidinyl-5-(4-chlorophenyl)-1-(2,4-dichlorophenyl)-4,5-dihydro-1H-pyrazole-3-carboxamide] | 0 | 100 | 0 | 74 | 0 | 100 | < 6.00 | > 7.60 | 0 | 100
2 | O=C(C1=NN(c2ccc(Cl)cc2Cl)C(c2ccc(Cl)cc2)C1)N1CCCCC1 (stereo not shown) [Example 5, [5-(4-Chloro-phenyl)-1-(2,4-dichloro-phenyl)-4,5-dihydro-1H-pyrazol-3-yl]-piperidin-1-yl-methanone] | 50 | 40 | 0 | 50 | 0 | 20 | ~6.00 | – | 0 | 20
